Test results taken from article PMC5874719, “A π-Halogen Bond of Dibenzofuranones with the Gatekeeper Phe113 in Human Protein Kinase CK2 Leads to Potent Tight Binding Inhibitors” (Pharmaceuticals, 2018).
Where “and” joins values, the source holds several entries; their conditions need not be identical. Equal values may be shown once. Read-outs that look alike come from different tables or passages of the source.

Assays:
Format in all cases: biochemical
[1] = target: T1, human protein kinase CK2 holoenzyme (CK2α2β2) (Homo sapiens, UniProt P68400); experiment: CE-based CK2 inhibition assay (phosphorylation of substrate peptide […]); settings: for remaining activity at 10 µM: 10 µM compound, compared to activity without compound, read-out: residual enzymatic activity; for IC50: CK2 holoenzyme, 100 µM ATP, 13 concentrations 0.01 nM to 10 µM
T1 construct: made in house
T1 sequence (P68400 whole entry): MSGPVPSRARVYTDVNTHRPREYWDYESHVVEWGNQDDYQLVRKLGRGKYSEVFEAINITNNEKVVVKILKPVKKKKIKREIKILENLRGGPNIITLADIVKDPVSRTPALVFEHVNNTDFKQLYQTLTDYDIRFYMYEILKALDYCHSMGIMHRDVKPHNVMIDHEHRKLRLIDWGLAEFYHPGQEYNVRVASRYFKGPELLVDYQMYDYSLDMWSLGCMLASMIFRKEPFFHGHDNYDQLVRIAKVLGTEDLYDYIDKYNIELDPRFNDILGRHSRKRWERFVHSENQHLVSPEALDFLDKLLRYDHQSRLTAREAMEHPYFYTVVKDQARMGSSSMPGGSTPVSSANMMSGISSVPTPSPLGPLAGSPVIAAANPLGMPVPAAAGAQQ
T1 sequence (P67870 whole entry partner): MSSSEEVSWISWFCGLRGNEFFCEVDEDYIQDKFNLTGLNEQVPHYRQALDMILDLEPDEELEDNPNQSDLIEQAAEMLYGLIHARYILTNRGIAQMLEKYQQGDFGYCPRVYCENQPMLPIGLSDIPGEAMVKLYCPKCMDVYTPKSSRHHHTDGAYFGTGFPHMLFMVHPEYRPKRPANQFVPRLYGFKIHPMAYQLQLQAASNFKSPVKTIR
Experimental: The phosporylation of an artificial substrate peptide ([…]) by the purified holoenzyme was analyzed in a capillary electrophoresis (CE) assay as described before. This peptide is commonly used for the determination of CK2 activity and phosphorylation was determined in the presence and in the absence of the compounds. For this purpose a stock solution of 10 mM in DMSO was prepared for each compound and diluted in the assay to a final concentration of 10 µM. […] Consequently 13 concentrations of both dibenzofurans, ranging from 0.01 nM to 10 µM were tested on their inhibition of CK2 dependent substrate phosphorylation in the presence of 100 μM ATP. […] This can be used to determine the so-called apparent Ki (Ki app) for different substrate (ATP) concentrations.
Human protein kinase CK2 holoenzyme was pre-incubated for 10 min with 13 different concentrations of each compounds ranging from 0.01 nM to 10 μM before the enzymatic activity was determined. […] The resulting inhibition in % was set into relation to the concentration of the corresponding compound in a logarithmic scale. For the calculation of the sigmoidal curve fitting the date GraphPad Prism (GraphPad, La Jolla, CA, USA) was used, as well as for the compound concentrations corresponding to 50% enzyme inhibition.
Phosphorylation of the substrate peptide […] by human protein kinase CK2 holoenzyme was determined in the CE assay at different ATP-concentrations (6, 30, 60, 150, 300, and 400 μM).
In order to determine the inhibition toward human protein kinase CK2 holoenzyme, the dibenzo[b,d]furan derivatives were subjected to the CE-based CK2 assay, as already described for other novel CK2 inhibitors before. In summary, 78 µL of kinase buffer (50 mM Tris/HCl, pH 7.5, 100 mM NaCl, 10 mM MgCl2 and 1 mM DTT) containing 0.25 µg CK2 holoenzyme were supplemented with 2 µL of the test-compound dissolved in DMSO and incubated at 37 °C for 10 min. After the addition of 120 µL of assay buffer (25 mM Tris/HCl, pH 8.5, 150 mM NaCl, 5 mM MgCl2, 1 mM DTT, 190 µM substrate peptide […] and 100 µM ATP) the CK2 reactions were carried out for 15 min at 37 °C, before they were stopped by ice cooling and the addition of 5 µL of EDTA (10 mM, pH 8.0). The samples were then analyzed for phosphorylation of the CK2 substrate peptide by capillary electrophoresis. […] Controls for 100% and 0% inhibition were realized by samples containing pure DMSO and samples additionally lacking the CK2 holoenzyme. IC50 were calculated from the obtained dose response curves.

Aurora A = target: T2, Aurora A (Homo sapiens, UniProt O14965); experiment: kinase selectivity profile; settings: 10 µM inhibitor, 10 µM ATP
T2 construct: purchased Reaction Biology Corp
T2 sequence (O14965 1-403): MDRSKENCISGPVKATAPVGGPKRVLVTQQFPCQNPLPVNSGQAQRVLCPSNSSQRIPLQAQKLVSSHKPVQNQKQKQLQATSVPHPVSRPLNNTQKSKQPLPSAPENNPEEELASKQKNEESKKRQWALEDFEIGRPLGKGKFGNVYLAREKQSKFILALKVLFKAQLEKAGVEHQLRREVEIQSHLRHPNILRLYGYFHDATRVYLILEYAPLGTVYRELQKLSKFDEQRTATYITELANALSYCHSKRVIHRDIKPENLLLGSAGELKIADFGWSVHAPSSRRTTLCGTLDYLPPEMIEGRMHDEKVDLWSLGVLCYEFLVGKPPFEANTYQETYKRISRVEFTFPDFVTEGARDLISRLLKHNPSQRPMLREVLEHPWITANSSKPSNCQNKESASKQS
From the text: (§1) This demands further investigation.

CAMKK2 = target: T3, CAMKK2 (Homo sapiens, UniProt Q96RR4); experiment: kinase selectivity profile; settings: 10 µM inhibitor, 10 µM ATP
T3 construct: purchased Reaction Biology Corp
T3 sequence (Q96RR4 whole entry): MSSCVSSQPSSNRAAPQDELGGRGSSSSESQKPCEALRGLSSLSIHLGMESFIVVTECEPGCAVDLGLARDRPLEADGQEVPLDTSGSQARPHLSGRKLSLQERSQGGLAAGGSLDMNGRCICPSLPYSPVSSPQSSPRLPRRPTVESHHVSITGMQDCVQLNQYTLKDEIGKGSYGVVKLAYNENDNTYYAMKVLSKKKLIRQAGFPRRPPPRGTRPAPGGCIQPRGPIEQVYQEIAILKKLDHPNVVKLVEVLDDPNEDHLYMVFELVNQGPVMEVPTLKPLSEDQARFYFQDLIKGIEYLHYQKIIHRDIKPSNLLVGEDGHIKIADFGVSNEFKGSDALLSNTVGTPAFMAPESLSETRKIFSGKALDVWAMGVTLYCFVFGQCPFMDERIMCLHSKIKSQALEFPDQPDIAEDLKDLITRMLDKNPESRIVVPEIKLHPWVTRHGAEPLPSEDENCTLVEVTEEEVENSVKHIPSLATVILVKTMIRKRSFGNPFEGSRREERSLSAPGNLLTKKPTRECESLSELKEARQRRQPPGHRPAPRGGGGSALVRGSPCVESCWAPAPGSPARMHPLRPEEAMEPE
From the text: as §1

FLT3 (D835Y) = target: T4, FLT3 (D835Y) (Homo sapiens, UniProt P36888, D835Y); experiment: kinase selectivity profile; settings: 10 µM inhibitor, 10 µM ATP
T4 construct: purchased Reaction Biology Corp
From the text: as §1

FLT3 = target: T5, FLT3 (Homo sapiens, UniProt P36888); experiment: kinase selectivity profile; settings: 10 µM inhibitor, 10 µM ATP
T5 construct: purchased Reaction Biology Corp
From the text: as §1

[2] = tested on: panel of 61 human protein kinases; experiment: kinase selectivity profile, whole panel; settings: 10 µM inhibitor, 10 µM ATP
From the text: as §1

[3] = target: T6, surface displayed CK2α’ + CK2β (CK2α’ containing human CK2 holoenzyme) (Homo sapiens, UniProt P19784); experiment: whole-cell CK2 selectivity assay, holoenzyme surface displayed on E. coli; settings: for IC50: CK2α’ + CK2β displayed on E. coli, 600 µM ATP, 100 µM substrate peptide; for factor of stronger inhibition of CK2α’ containing holoenzyme in comparison to CK2α containing holoenzyme: whole-cell assay, not statistically significant
T6 construct: surface-display (autodisplay) carrier protein; made in house; host or cells: Escherichia coli BL21 (DE3), enzyme left on the cell surface
T6 sequence (P19784 whole entry): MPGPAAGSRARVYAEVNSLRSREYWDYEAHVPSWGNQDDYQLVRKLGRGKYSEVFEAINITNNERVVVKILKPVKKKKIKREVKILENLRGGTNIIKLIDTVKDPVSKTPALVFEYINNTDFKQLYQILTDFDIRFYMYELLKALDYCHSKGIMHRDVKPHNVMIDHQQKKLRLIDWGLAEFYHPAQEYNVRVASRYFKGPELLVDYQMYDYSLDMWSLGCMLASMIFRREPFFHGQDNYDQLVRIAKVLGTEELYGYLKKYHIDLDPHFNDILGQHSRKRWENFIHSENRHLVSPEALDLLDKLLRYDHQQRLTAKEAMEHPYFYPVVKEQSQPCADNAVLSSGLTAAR
T6 sequence (P67870 whole entry partner): as the sequence (P67870 whole entry partner) above
From the text: We recently reported a whole cell CK2 activity assay, which can be used for testing the selectivity of compounds towards CK2α and CK2α’ [47]. It is based on the surface display of the human CK2 subunits, either α or α’ together with β on E. coli, were they are able to form a functional tetrameric holoenzymes, either ααββ or α’α’ββ, depending on which α isoform has been expressed. This technique was used to investigate whether 4a or 5 have preference to one of the two catalytic isoforms of CK2.
For this purpose, their IC50 were determined following the protocol of the recently described whole-cell CK2 selectivity assay. In summary, 78 µL of a bacterial suspension of Escherichia coli BL21 (DE3) either surface displaying CK2α + CK2β or CK2α’ + CK2β in kinase buffer (50 mM Tris/HCl, pH 8.5, 100 mM NaCl, 10 mM MgCl2 and 1 mM DTT) were supplemented with 2 µL of the test compound dissolved in DMSO and incubated at 37 °C and 400 rpm for 10 min. CK2 reactions were started by the addition of 120 µL of assay buffer (25 mM Tris/HCl, pH 7.5, 150 mM NaCl, 5 mM MgCl2, 1 mM DTT, 167 µM substrate peptide […] and 1 mM ATP) leading to a total reaction volume of 200 µL with final concentrations of 100 µM for the substrate peptide and 600 µM for ATP. […] After the samples were incubated for 120 min at 37 °C and 400 rpm, the CK2 presenting bacteria were removed by centrifugation (3850× g, 5 min, 4 °C). The obtained supernatants were transferred to the wells of a 96 well-microplate and finally supplemented with EDTA to a concentration of 12.5 mM to definitely stop the enzymatic reactions. The samples were then subjected to a Beckman Coulter pa800 plus (Krefeld, Germany) CE system and analyzed for phosphorylation of the substrate peptide. Samples containing pure DMSO served as controls for 0% inhibition and samples additionally lacking ATP served as controls for 100% inhibition. […] IC50 values were calculated from the resulting dose-response curves.
CK2α’ + CK2β (right column).
Mean values ± standard errors of
the means (SEM) are shown. […]

[4] = Morrison equation, ATP 6–400 µM, best fit line extrapolated to ATP concentration = 0, read-out: apparent Ki (Ki app)

remaining activity at 10 µM [1] | IC50 [1] | Ki [1, 4] | Ki ([1]; repeated with double the amount of the enzyme CK2, different ATP concentrations, read-out: Ki app) | kinase inhibited more than 70% at 10 µM concentration (Aurora A) | kinase inhibited more than 70% at 10 µM concentration (CAMKK2) | kinase inhibited more than 70% at 10 µM concentration (FLT3 (D835Y)) | kinase inhibited more than 70% at 10 µM concentration (FLT3) | number of kinases out of the 61 kinases inhibited to more than 70% [2] | IC50 [3] | factor of stronger inhibition of CK2α’ containing holoenzyme in comparison to CK2α containing holoenzyme [3] | Structure (SMILES)
< 1% | 7 nM and 5 nM | 0.41 nM and 0.4 nM | ~4 nM | Aurora A | CAMKK2 | FLT3 (D835Y) | FLT3 | 6 | 43 nM | 1.5 | COc1ccc(N/C=C2\C(=O)CCc3c2oc2cc(Cl)c(O)c(Cl)c32)cc1 [4a, 7,9-dichloro-1,2-dihydro-8-hydroxy-4-[(4-methoxyphenylamino)methylene]dibenzo[b,d]furan-3(2H)-one]
< 1% | 5 nM and 7 nM | 0.46 nM and 0.4 nM | – | Aurora A | CAMKK2 | FLT3 (D835Y) | FLT3 | 11 | 73 nM | 1.5 | COc1ccc(/N=C/c2c(O)ccc3c2oc2cc(Cl)c(O)c(Cl)c23)cc1 [compound 5, (E)-1,3-dichloro-6-[(4-methoxyphenylimino)methyl]dibenzo[b,d]furan-2,7-diol]
